From PubChem BioAssay AID1963827 (Molecular Pharmacology Branch, DTP, NCI, 2024)
“And” between values parts separate entries of the source, which are not always exact repeats. Equal entries are not always repeated.

System: 994946-033-R-J1-PDC complex spheroid viability
Experiment: Anticancer human tumor 994946-033-R-J1-PDC patient-derived melanoma cell line growth inhibition [POLQ]
Conditions: for viability, T/C: stronger effect = lower value
Procedure: Multicellular complex tumor spheroid response to Polymerase (POL) inhibitors (novobiocin, ART-558, RP6685) in combination with a variety of drugs and investigational agents in selected tumor cell lines
The POL inhibitors (novobiocin, ART-558, and RP6685) were evaluated both individually and in combination with standard of care and investigational anticancer small molecules within a complex spheroid model of solid tumors. . Complex spheroids include a stromal component modeled by human endothelial cells (HUVEC) and fibroblasts modeled by human mesenchymal stem cells (MSCs). The concentration ranges selected for each drug and investigational agent were based upon clinically achievable concentrations if the clinical Cmax of the agent was known.
Compounds. The drugs and investigational agents: novobiocin (NSC847541), ART-558 (NSC835418), RP-6685 (NSC848927), peposertib (NSC802822), ceralasertib (NSC780249), elimusertib (NSC800525), camonsertib (NSC841442), AZD-1390 (NSC803789), olaparib (NSC753686), talazoparib (NSC767125), rucaparib (NSC756644), sotorasib (NSC818433), MRTX-1133 (NSC836407), SN-38 (NSC673596), topotecan (NSC609699), epotoside (NSC141540), doxorubicin (NSC123127), gemcitabine (NSC613327), 5-fluorouracil (NSC19893), paclitaxel (NSC125973), vemurafenib (NSC761431), MSA-2 (NSC828583), SN-011 (NSC837082), adavosertib (NSC754352), prexasertib (NSC758257), carboplatin (NSC241240) and oxaliplatin (NSC266046), were obtained from the National Cancer Institute (NCI) Developmental Therapeutics Program Chemical Repository (21). The FDA-approved anticancer drug set is available from the Developmental Therapeutics Program at https://dtp.cancer.gov/organization/dscb/obtaining/. […] The stock solutions were prepared in dimethyl sulfoxide (DMSO, Sigma-Aldrich, St. Louis, MO, cat. D2650), except for the platinum compounds which were prepared in saline (Quality Biological, Gaithersburg, MD, cat. 114-055-101), at 800-fold the tested concentration and stored at -70 degrees C prior to their use. All drugs and investigational agents were tested over a range starting from a high concentration at or near the clinical Cmax and decreasing in half-log increments. If the clinical Cmax for an agent had not been determined, the highest concentration tested was 10 microM, except for SN-38, which was tested at a high concentration of 1 microM.
Cell Culture. All cells were maintained in an incubator at 37 degrees C and 5% CO2 with 95% humidity. The PDC lines were cultured according to standard operating procedures established by the NCI PDMR (https://pdmr.cancer.gov). Table 3 of the manuscript, lists the cell lines along with the number of the three cell types plated to form the mct-spheroids and media for tumor cell growth. After thawing, all PDC lines, except 997537-175-T-J1-PDC and 415267-285-R-J2-PDC, were cultured in Matrigel-coated flasks prepared with a working solution of 1X Ham's F-12 nutrient mix, without supplementation (Thermo Fisher Scientific, cat. 11765054), 100 U/mL penicillin-streptomycin (Thermo Fisher Scientific, cat. 15140122), and 2.5% Matrigel (Corning Inc., Corning, NY, cat. 354248) for the first three passages. The two PDC lines 997537-175-T-J1-PDC and 415267-285-R-J2-PDC were cultured on uncoated flasks. The 857933-349-R-J2-PDC line was cultured in 6C/Colon 1B media containing advanced DMEM/F-12 (Thermo Fisher Scientific, cat. 12634028), 10 mM HEPES (Thermo Fisher Scientific, cat. 15630080), 1X GlutaMAX supplement (Thermo Fisher Scientific, cat. 35050061), 0.1 mg/mL primocin (InvivoGen, San Diego, CA, cat. ant-pm-2), 10% defined fetal bovine serum, heat inactivated (HyClone Laboratories Inc., Logan, UT, cat. SH30070.03HI), 50% L-WRN conditioned media (ATCC, cat. CRL-3276), 1.25 mM N-Acetyl-L-cysteine (Sigma-Aldrich, cat. A9165), 10 mM nicotinamide (Sigma-Aldrich, cat. N0636), 1X B-27 supplement (Thermo Fisher Scientific, cat. 17504044), 1X N-2 supplement (Thermo Fisher Scientific, cat. […]
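Also: spheroids exposed to drugs for 7 days.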
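For viability, T/C in this document: 100% = DMSO vehicle treated spheroids.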

## CC(=O)O[C@H]1C(=O)[C@@]2(C)[C@H]([C@H](OC(=O)c3ccccc3)[C@]3(O)C[C@H](OC(=O)[C@H](O)[C@@H](NC(=O)c4ccccc4)c4ccccc4)C(C)=C1C3(C)C)[C@]1(OC(C)=O)CO[C@@H]1C[C@@H]2O + Nc1ccc(C#CCN(C(=O)Cc2ncc(C(F)(F)F)cc2C(F)(F)F)c2ccc(F)cc2)nn1
Curve of first compound, second compound 0.0316 µM
  IC50: < 9.49 nM
Curve of first compound, second compound 0.1 µM
  IC50: < 9.49 nM
Curve of first compound, second compound 0.316 µM
  IC50: < 9.49 nM
Curve of first compound, second compound 1 µM
  IC50: < 9.49 nM
Curve of first compound, second compound 3.16 µM
  IC50: < 9.49 nM
Curve of first compound, second compound 10 µM
  IC50: < 9.49 nM
Second compound 0.0316 µM, first compound 0.00949 µM
  viability, T/C: 20.4%
Second compound 0.0316 µM, first compound 0.03 µM
  viability, T/C: 18.5%
Second compound 0.0316 µM, first compound 0.0949 µM
  viability, T/C: 14.8%
Second compound 0.0316 µM, first compound 0.3 µM
  viability, T/C: 22%
Second compound 0.0316 µM, first compound 0.949 µM
  viability, T/C: 13.5%
Second compound 0.0316 µM, first compound 3 µM
  viability, T/C: 12%
Second compound 0.1 µM, first compound 0.00949 µM
  viability, T/C: 25.9%
Second compound 0.1 µM, first compound 0.03 µM
  viability, T/C: 23.6%
Second compound 0.1 µM, first compound 0.0949 µM
  viability, T/C: 19.4%
Second compound 0.1 µM, first compound 0.3 µM
  viability, T/C: 15.9%
Second compound 0.1 µM, first compound 0.949 µM
  viability, T/C: 9.63%
Second compound 0.1 µM, first compound 3 µM
  viability, T/C: 13.3%
Second compound 0.316 µM, first compound 0.00949 µM
  viability, T/C: 22.3%
Second compound 0.316 µM, first compound 0.03 µM
  viability, T/C: 20.8%
Second compound 0.316 µM, first compound 0.0949 µM
  viability, T/C: 20.4%
Second compound 0.316 µM, first compound 0.3 µM
  viability, T/C: 15.9%
Second compound 0.316 µM, first compound 0.949 µM
  viability, T/C: 13.8%
Second compound 0.316 µM, first compound 3 µM
  viability, T/C: 13.9%
Second compound 1 µM, first compound 0.00949 µM
  viability, T/C: 29.7%
Second compound 1 µM, first compound 0.03 µM
  viability, T/C: 24.9%
Second compound 1 µM, first compound 0.0949 µM
  viability, T/C: 20%
Second compound 1 µM, first compound 0.3 µM
  viability, T/C: 20%
Second compound 1 µM, first compound 0.949 µM
  viability, T/C: 15.3%
Second compound 1 µM, first compound 3 µM
  viability, T/C: 13.2%
Second compound 3.16 µM, first compound 0.00949 µM
  viability, T/C: 29.2%
Second compound 3.16 µM, first compound 0.03 µM
  viability, T/C: 24.2%
Second compound 3.16 µM, first compound 0.0949 µM
  viability, T/C: 18.4%
Second compound 3.16 µM, first compound 0.3 µM
  viability, T/C: 15.3%
Second compound 3.16 µM, first compound 0.949 µM
  viability, T/C: 14.1%
Second compound 3.16 µM, first compound 3 µM
  viability, T/C: 12.1%
Second compound 10 µM, first compound 0.00949 µM
  viability, T/C: 24.8%
Second compound 10 µM, first compound 0.03 µM
  viability, T/C: 24%
Second compound 10 µM, first compound 0.0949 µM
  viability, T/C: 25%
Second compound 10 µM, first compound 0.3 µM
  viability, T/C: 18%
Second compound 10 µM, first compound 0.949 µM
  viability, T/C: 18.9%
Second compound 10 µM, first compound 3 µM
  viability, T/C: 12.2%

## CCc1cc2c(N3CCc4c(cc(Cn5ccnc5)cc4-c4cn(C)nc4C(F)(F)F)C3=O)ccnc2c(OC)n1
Compound 0.0316 µM
  viability, T/C: 89.4% and 91.8% and 73.3%
Compound 0.1 µM
  viability, T/C: 85.4% and 86.5% and 82.3%
Compound 0.316 µM
  viability, T/C: 85.9% and 66.4% and 74.3%
Compound 1 µM
  viability, T/C: 88.4% and 84% and 76.2%
Compound 3.16 µM
  viability, T/C: 80.5% and 83.7% and 102%
Compound 10 µM
  viability, T/C: 76% and 62.5% and 43%
Curve of compound
  IC50: > 10000 nM and 8110 nM

## CC1COCCN1c1cc(-c2ccnn2C)c2ccnc(-c3ccn[nH]3)c2n1 (stereo unspecified)
Compound 0.0316 µM
  viability, T/C: 68% and 74.9% and 58.3%
Compound 0.1 µM
  viability, T/C: 37.9% and 28.1% (2×)
Compound 0.316 µM
  viability, T/C: 24.9% and 25.2% and 20.4%
Compound 1 µM
  viability, T/C: 17.2% and 25.2% and 29.2%
Compound 3.16 µM
  viability, T/C: 15.5% and 20.5% and 13.3%
Compound 10 µM
  viability, T/C: 10.3% and 16% and 14.4%
Curve of compound
  IC50: 64 nM and 58.7 nM and 43.7 nM
